Several values for one entry are separate records, joined by “and”; a condition that tells them apart may be missing. Equal values may be shown once. Activity calls are given as the source filed them. The rule behind the calls is not given here.
Columns and labels:
NS3h 1b[con1] = experiment: HCV NS3 helicase inhibition across viral strains, late-stage follow-up, selectivity assay for HCV NS3 helicase inhibitor project, biochemical, real-time fluorescence, strains con1 and JFH1, set 3 (AID 602275); conditions: Recombinant NS3h, real-time fluorescence helicase unwinding
NS3h 2a[JFH1] = experiment: as above; conditions: Recombinant NS3h, real-time fluorescence helicase unwinding

Compound | outcome (NS3h 1b[con1]) | IC50 (NS3h 2a[JFH1]) | IC50 (NS3h 1b[con1]) | outcome (NS3h 2a[JFH1])
Cc1cc2sc(-c3ccc(N)cc3)nc2cc1S(=O)(=O)O | inactive | inactive |  | 
Cc1ccc2nc(-c3ccc4nc(-c5ccc(N(C)C(=O)c6ccc7ccccc7c6)cc5)sc4c3)sc2c1S(=O)(=O)O |  | 13.5 µM | 14.4 µM | 
Cc1ccc2nc(-c3ccc4nc(-c5ccc(NC(=O)c6ccc7ccccc7c6)cc5)sc4c3)sc2c1S(=O)(=O)O |  | 2.2 µM and 4.4 µM | 2.7 µM and 3.6 µM | 
Cc1ccc2nc(-c3ccc(N)cc3)sc2c1S(=O)(=O)O |  | 21.1 µM | inactive | 
Cc1ccc2nc(-c3ccc4nc(-c5ccc(NC(=O)c6ccc(CNC(=O)OCC7c8ccccc8-c8ccccc87)cc6)cc5)sc4c3)sc2c1S(=O)(=O)O |  | 4.6 µM | 4.4 µM | 
COC(=O)c1ccc(C(=O)Nc2ccc(-c3nc4ccc(-c5nc6ccc(C)c(S(=O)(=O)O)c6s5)cc4s3)cc2)cc1 |  | 2.4 µM | 9.7 µM | 
Cc1ccc2nc(-c3ccc4nc(-c5ccc(NC(=O)c6ccc7nc(-c8ccc(N)cc8)sc7c6)cc5)sc4c3)sc2c1S(=O)(=O)O |  | 3.2 µM | 5.5 µM | 
Cc1ccc2nc(-c3ccc4nc(-c5ccc(NC(=O)c6cc(F)cc(C(F)(F)F)c6)cc5)sc4c3)sc2c1S(=O)(=O)O |  | 15.8 µM | 28.4 µM | 
CCN(CC)c1ccc(-c2nc3ccc(-c4nc5ccc(C)c(S(=O)(=O)O)c5s4)cc3s2)cc1 |  | 4.7 µM | 4.6 µM | 
Cc1ccc2nc(-c3ccc(NC(=O)c4ccc(NC(=O)c5ccc(C(F)(F)F)cc5)cc4)cc3)sc2c1S(=O)(=O)O |  | 14.7 µM | 10.4 µM | 
Cc1ccc2nc(-c3ccc4nc(-c5ccc(NC(=O)c6ccc(Br)cc6)cc5)sc4c3)sc2c1S(=O)(=O)O |  | 7.4 µM | 5.2 µM | 
COc1cccc2c(=O)c3cc(Cl)cc(C(=O)Nc4cc(Cl)ccn4)c3[nH]c12 |  | 25.3 µM | 27.5 µM | 
CN1CCN(Cc2cc(CN3CCN(C)CC3)c(O)c(=O)c(CN3CCN(C)CC3)c2)CC1 |  | 18.9 µM | 24 µM | 
Cc1cc(C(O)(c2ccc(Nc3ccccc3)cc2)c2ccc(Nc3ccc(S(=O)(=O)O)cc3)cc2)ccc1N (centres undefined) |  | 16.8 µM | 28.6 µM | 
COc1ccc(NC(=O)Nc2ccc(-c3nc4ccc(-c5nc6ccc(C)c(S(=O)(=O)O)c6s5)cc4s3)cc2)cc1 |  | 6.4 µM | 4.8 µM | 
Cc1ccc2nc(-c3ccc(NC(=O)c4ccc(NC(=O)OCC5c6ccccc6-c6ccccc65)cc4)cc3)sc2c1S(=O)(=O)O |  | 11.5 µM | 11.8 µM | 
Cc1ccc(NC(=O)Nc2ccc(-c3nc4ccc(-c5nc6ccc(C)c(S(=O)(=O)O)c6s5)cc4s3)cc2)cc1 |  | 4 µM | 5.3 µM | 
COc1ccc2sc(NC(=O)c3ccc4ncsc4c3)nc2c1 | inactive |  |  | inactive
Cc1ccc2nc(-c3ccc(NC(=O)c4ccc(NC(=O)c5ccc(N)cc5)cc4)cc3)sc2c1S(=O)(=O)O |  | 25.5 µM | 29.4 µM | 
Cc1ccc2nc(-c3ccc4nc(-c5ccc(NC(=O)c6ccc7nc(-c8ccc(NC(=O)OCC9c%10ccccc%10-c%10ccccc%109)cc8)sc7c6)cc5)sc4c3)sc2c1S(=O)(=O)O |  | 1.7 µM and 0.8 µM | 4 µM and 28.9 µM | 
Cc1ccc2nc(-c3ccc4nc(-c5ccc(NC(=O)c6ccc(C(F)(F)F)cc6)cc5)sc4c3)sc2c1S(=O)(=O)O |  | 2.3 µM | 1.8 µM | 
Cc1ccc2nc(-c3ccc4nc(-c5ccc(NC(=O)c6ccc(NC(=O)OCC7c8ccccc8-c8ccccc87)cc6)cc5)sc4c3)sc2c1S(=O)(=O)O |  | 5.8 µM | 5.4 µM | 
Cc1ccc2nc(-c3ccc4nc(-c5ccc6nc(-c7ccc8nc(-c9ccc(N)cc9)sc8c7)sc6c5)sc4c3)sc2c1S(=O)(=O)O |  | 0.5 µM and 1.2 µM | 0.8 µM and 2.2 µM | 
Cc1ccc2nc(-c3ccc(NC(=O)c4ccc(NC(=O)c5ccc(NC(=O)OCC6c7ccccc7-c7ccccc76)cc5)cc4)cc3)sc2c1S(=O)(=O)O |  | 1.9 µM | 2.5 µM | 
Cc1ccc2nc(-c3ccc4nc(-c5ccc(NC(=O)c6ccc(N(C)C)cc6)cc5)sc4c3)sc2c1S(=O)(=O)O |  | 6 µM | 11 µM | 
Cc1cc2sc(-c3ccc4nc(-c5ccc(N)cc5)sc4c3)nc2cc1S(=O)(=O)O |  | 3.9 µM | 7 µM | 
Cc1ccc2nc(-c3ccc(NC(=O)c4ccc(NC(=O)Nc5ccccc5)cc4)cc3)sc2c1S(=O)(=O)O |  | 32.1 µM | 43.8 µM | 

From PubChem BioAssay AID602275 (The Scripps Research Institute Molecular Screening Center, 2012)
